Measurements: patent publication US20190350955A1, “METHODS AND PHARMACEUTICAL COMPOSITIONS FOR THE TREATMENT OF CARDIOMYOPATHIES” (INSERM (Institut National de la Sante et de la Recherche …, priority 2016, published 2019)

What was measured:
Format in all cases: in vivo, mouse
Lmna^H222P/H222P mice = experiment: NAD+ content quantification in heart and liver of treated Lmna H222P/H222P mice; conditions: NR complemented diet 400 mg/kg/day, from 17 weeks of age for 9 weeks, vs chow-diet
Protocol: Mice were bred in an accredited animal facility (accreditation number: C-75-13-08). All experiments on mice were approved by the Comité d'éthique en expérimentation animate Charles Darwin No 5. Mice Lmna^H222P/H222P were backcrossed 8 times to 129S2/SvPasOrlRj strain mice to obtain pure genetic background. Male mice used for the studies were maintained under a 12 h light/12 h dark cycle at constant temperature (23° C.) with free access to food and water. Nicotinamide riboside (NR) complementation: Animals at 17 weeks of age were fed for 9 weeks with either a chow diet (A04: Scientific Animal Food & Engineering) or a chow diet complemented with 0.25% of NR (kindly provided by ChromaDex, Inc. California) corresponding to a dose of 400 mg/kg/day for a mouse weighing 25 g eating 4 g of food per day. […]
Fresh mouse tissues were homogenized and processed according to previous report (Sander B J, Oelshlegel F J & Brewer G J (1976) Quantitative analysis of pyridine nucleotides in red blood cells: a single-step extraction procedure. Anal. Biochem. 71: 29-36). The concentration of NAD+ in heart tissue was determined using a spectrophotometric assay at 550 nm based on an alcohol dehydrogenase cycling reaction, in which a Methyl Thiazolyl Tetrazolium (MTT) is reduced to Formazan. […]

SRF^HKO mice = experiment: RT-qPCR gene expression in SRF HKO heart
Description: Transgenic mice. All experiments with animals conformed to the Directive 2010/63/EU of the European Parliament and were approved by the ethics committee Charles Darvin #5 (agreement 00369.01). SRF^HKO mice bear the tamoxifen-inducible α-MHC-MerCrMer transgene and the Siffloxed allele (Sf/Sf) as described previously (Parlakian et al. (2005). Temporally controlled onset of dilated cardiomyopathy through disruption of the SRF gene in adult heart. Journal 112, 2930-2939; Tritsch et al. (2013). An SRF/miR-1 axis regulates NCX1 and Annexin A5 protein levels in the normal and failing heart. Journal 98, 372-380). Transgenic mice have been bred for more than 20 generations in C57BL/6N background. The mice were housed in standard animal facility (CEF. Hôpital Pitié Salpétrière, agreement A-75-13-15, 75013 Paris), under a 12-h dark/light cycle. Tamoxifen (Sigma T5648) was administrated by i.p. injection at a dose of 0.7 mg diluted in 100 μl peanut oil at day (D) 0, D1 and D2. (Sf/Sf) littermates injected with tamoxifen at the same time than mutant were used as controls.
Nicotinamide and nicotinamide riboside i.p. administration. Nicotinamide was diluted in saline at 300 mM. Nicotinamide riboside (NR) bromide salt stock solution (1M) was in 10 mM citric acid pH 6.0. For injection 3 volumes of NR stock solution was mixed extemporaneously with 7 volumes of PBS to obtain a 300 mM injectable solution at pH 7.2. Mice were injected daily at a dose of 1 μmole/g body weight.
(§1) SRF^HKO and control (Sf/Sf) mice were administered either rodent maintenance SAFE A04 diet containing 3.10% crude fat. 16.10% crude proteins. 26% starch and 1.9% sugar (Scientific Animal Food Engineering, Paris, France) or SAFE # A04 diet supplemented with NR. NR was provided by Chromadex under brand name NIAGEN (Irvine Calif. USA). The soft pellets were manually prepared every 5 days by mixing 1.65 g of NR into 500 g of powdered SAFE A04 diet and 235 ml of water to reach 2.24 mg of NR/g (wet weight). Control diet was prepared in the same way omitting NR. Mice had ad libitum access to food and water. Mice (average body weight 31.3±0.82 g, no difference between groups) consumed an average of 6 g of soft food per day, reaching a daily intake of 450 mg NR/kg. No difference in food intake was observed between SRF^HKO and control mice.
cDNAs were reverse transcribed from RNA (1.5 μg) extracted in TRIzol (Thermofisher) from cell cultures and tissues using the Superscript II Reverse Transcriptase (Life Technologies). Quantitative PCR was carried out on a Light Cycler 480 (Roche Diagnostics) using Fast Start SYBR Green Master (Roche Diagnostics). Quantification of gene expression was calculated as R=2^ΔCt(Ref Cp−target Cp), with Hprt used as a as reference. Primers were designed using the NCBI Primer-BLAST software. Primer sequences are available on request.

citrate synthase = experiment: Citrate synthase activity in left ventricular myocardium; conditions: SRF HKO left ventricular myocardium at D50, NR diet
Protocol: as §1, with “Mice (average body weight 31.3±0.82 g, no difference between groups) consumed an average of 6 g of soft food per day, reaching a daily intake of 450 mg NR/kg. No difference in food intake was observed between SRF^HKO and control mice.” left out
Frozen tissue samples were weighed, homogenized (Bertin Precellys 24) in ice-cold buffer (50 mg/ml) containing HEPES 5 mM (pH 8.7), EGTA 1 mM, DTT 1 mM and 0.1% Triton X-100. Citrate synthase (CS), activity was determined in homogenized ventricles as previously described (Kuznetsov et al. (2008). Analysis of mitochondrial function in situ in permeabilized muscle fibers, tissues and cells. Journal 3, 965-976). Activities of enzymes were determined by standard spectrophotometric assays. Briefly, for citrate synthase (CS), approximately 0.5 μg of protein were added in 1 ml of Buffer M (Trizma 100 mM (pH 8), 5,5′-dittiobis-(2-Nitrobenzenoic acid) 0.1 mM, Acetyl-CoA 0.3 mM, oxaloacetatic acid 0.5 mM) and the absorbance at 412 nm was measured during 3 min. […]

NC(=O)c1ccc[n+]([C@@H]2O[C@H](CO)[C@@H](O)[C@H]2O)c1 [NR, nicotinamide riboside]
NAD+ content in liver and heart (Lmna^H222P/H222P mice): increase of their NAD+ content in both the liver and the heart
expression level of the NADPH oxidase gene Nox4 (SRF^HKO mice; NR diet, heart of SRF HKO mice): increased
expression level of the Nfel2 gene encoding NRF2 and its target gene metallothionein 2 (SRF^HKO mice; NR diet, heart of SRF HKO mice): increased
expression level of G6pdx (SRF^HKO mice; SRF HKO mice under the NR diet): maintained at higher level than in controls
Srf and Nmrk2 expression levels (SRF^HKO mice; i.p. administration from D8 to D15): not changed
citrate synthase activity (citrate synthase): protected against the decline
